Data published in patent publication US11760775B2, “Steroids and protein-conjugates thereof” (Regeneron Pharmaceuticals, Inc., priority 2016, dated 2023).
pEC50, pIC50: −log10 of the molar value. Structures can show the parent of a compound that is named as a salt. Where two headings read alike, the source gives them in different places.

Tests used:
[1] = biological target: Glucocorticoid Receptor (GR) (Homo sapiens (Human), UniProt P04150); test: LanthaScreen TR-FRET GR Competitive Binding Assay (cell free)
[2] = system: GR activation in 293/PRLR/GRE-Luc cells (HEK293/9xUAS-Luc2P/pBind-GR/PRLR-HA high cells); test: GR co-activator luciferase reporter cell based assay in 293/PRLR/GRE-Luc cells; set-up: species or system human; details: for pEC50: read-out: HEK293/9xUAS-Luc2P/pBind-GR/PRLR-HA high cells EC50; for HEK293/9xUAS-Luc2P/pBind-GR/PRLR-HA high cells activation relative to Budesonide: fold activation vs Budesonide
Summary of the method: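 EC50 was derived from a 10-point, four-parameter logistic fit of One-Glo luminescence. The reporter is driven by Gal4UAS through GR ligand-binding domain fused to Gal4 DBD in PRLR-expressing 293 cells, after ADC internalization or free steroid exposure. Activation below 10% of the free-payload maximum counts as minimal.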

Chain of Glucocorticoid Receptor (GR) (P04150 524-758): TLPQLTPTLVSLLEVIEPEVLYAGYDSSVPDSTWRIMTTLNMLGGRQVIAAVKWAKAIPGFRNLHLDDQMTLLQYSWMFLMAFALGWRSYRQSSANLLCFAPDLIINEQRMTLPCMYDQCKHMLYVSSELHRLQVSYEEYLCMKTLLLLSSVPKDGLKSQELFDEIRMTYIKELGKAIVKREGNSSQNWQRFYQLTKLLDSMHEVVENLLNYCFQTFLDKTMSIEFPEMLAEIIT

| SMILES | pIC50 [1] | pEC50 ([2]; Homo sapiens, HEK293) | HEK293/9xUAS-Luc2P/pBind-GR/PRLR-HA high cells activation relative to Budesonide [2] | Emax ([2]; Homo sapiens, HEK293, read-out: Activation (fold activation relative to Budesonide) in HEK293/9xUAS-Luc2P/pBind-GR/PRLR-HA high cells, 72 hours of incubation) | pEC50 ([2]; Homo sapiens, HEK293, 72 hours of incubation) | Activation (fold activation relative to Budesonide) in HEK293/9xUAS-Luc2P/pBind-GR/PRLR-HA high cells ([2]; 72 hours of incubation) | pEC50 ([2]; 72 hours of incubation) |
| --- | --- | --- | --- | --- | --- | --- | --- |
| C[C@@H]1C[C@H]2[C@@H]3C[C@H](F)C4=CC(=O)C=C[C@]4(C)[C@@]3(F)[C@@H](O)C[C@]2(C)[C@@]1(O)C(=O)CN [Compound 4d, (1R,2S,8S,10S,11S,13R,14R,15S,17S)-14-(2-Aminoacetyl)-1,8-difluoro-14,17-dihydroxy-2,13,15-trimethyltetracyclo 18.7.0.0^2,70.0^11,15]heptadeca-3,6-dien-5-one trifluoroacetate] | 7.30 to 8.00 | 7.30 to 8.00 | Partial | – | – | – | – |
| CCCC1O[C@@H]2C[C@H]3[C@@H]4CCC5=CC(=O)C=C[C@]5(C)[C@@]4(F)[C@@H](O)C[C@]3(C)[C@]2(C(=O)CN)O1 (stereo partly drawn) [Compound 4h, (1S,2S,4R,8S,9S,11S,12R,13S)-8-(2-Aminoacetyl)-12-fluoro-11-hydroxy-9,13-dimethyl-6-propyl-5,7-dioxapentacyclo[10.8.0.0^2,9.0^4,8.0^13,18]icosa-14,17-dien-16-one] | 7.30 to 8.00 | > 8.00 | Full | – | – | – | – |
| [2H]c1c([2H])c(OCC(=O)[C@@]23OC(CCC)O[C@@H]2C[C@H]2[C@@H]4C[C@H](F)C5=CC(=O)C=C[C@]5(C)[C@@]4(F)[C@@H](O)C[C@@]23C)c([2H])c([2H])c1N (stereo partly drawn) [Compound 6-ID, (1S,2S,4R,8S,9S,11S,12R,13S,19S)-8-{2-[4-Amino(2,3,5,6-^2H4)phenoxy]acetyl}-12,19-difluoro-11-hydroxy-9,13-dimethyl-6-propyl-5,7-dioxapentacyclo[10.8.0.0^2,9.0^4,8.0^13,18]icosa-14,17-dien-16-one] | > 8.00 | > 8.00 | Full | – | – | – | – |
| CCCC1O[C@@H]2C[C@H]3[C@@H]4C[C@H](F)C5=CC(=O)C=C[C@]5(C)[C@@]4(F)[C@@H](O)C[C@]3(C)[C@]2(C(=O)COc2ccc(N)c(OC)c2)O1 (stereo partly drawn) [Compound 6-II, (1S,2S,4R,8S,9S,11S,12R,13S,19S)-8-[2-(4-Amino-3-methoxyphenoxy)acetyl]-12,19-difluoro-11-hydroxy-9,13-dimethyl-6-propyl-5,7-dioxapentacyclo[10.8.0.0^2,90.0^4,80.0^13,18]icosa-14,17-dien-16-one trifluoroacetate] | > 8.00 | > 8.00 | Full | – | – | – | – |
| CCC(=O)O[C@]1(C(=O)CNC)[C@@H](C)C[C@H]2[C@@H]3C[C@H](F)C4=CC(=O)C=C[C@]4(C)[C@@]3(F)[C@@H](O)C[C@@]21C [Compound 14-2, (1R,2S,8S,10S,11S,13S,14R,15S,17S)-1,8-difluoro-17-hydroxy-2,13,15-trimethyl-14-[2-(methylamino)acetyl]-5-oxotetracyclo[8.7.0.0^2,70.0^11,15]heptadeca-3,6-dien-14-yl propanoate] | > 8.00 | – | – | < 20% | < 7.00 | – | – |
| C[C@@H]1C[C@H]2[C@@H]3C[C@H](F)C4=CC(=O)C=C[C@]4(C)[C@@]3(F)[C@@H](O)C[C@]2(C)[C@@]1(O)C(=O)COc1ccc(N)cc1 [Compound 15-5, (1R,2S,8S,10S,11S,13R,14R,155,17S)-14-[2-(4-Aminophenoxy)acetyl]-1,8-difluoro-14,17-dihydroxy-2,13,15-trimethyltetracyclo[8.7.0.0^2,70.0^11,15]heptadeca-3,6-dien-5 one] | 7.00 to 8.00 | – | – | – | – | Full activation (Full activation: >75% of fold activation induced by Budesonide) | 7.00 to 8.00 |
| CCC[C@@H]1O[C@@H]2C[C@H]3[C@@H]4C[C@H](F)C5=CC(=O)C=C[C@]5(C)[C@@]4(F)[C@@H](O)C[C@]3(C)[C@]2(C(=O)COc2ccc(N)cc2)O1 [Compound R-6-I] | > 8.00 | > 8.00 | Full | – | – | – | – |
